Data taken from publication PMC5962729 (Frontiers in Pharmacology, 2018).

Tests used:
[1] = Pharmacokinetic study of YCHD components and phase II metabolites in normal rats (UHPLC-MS/MS, sulfatase enzymolysis); assay type: in vivo, rat; conditions: for Tmax: po, 12 g/kg; for CL/F: read-out: CLz/F; for Vd/F: read-out: Vz/F; for direct detection of the prototype in rat plasma after YCHD administration: before enzymolysis, transformed into phase II metabolites completely
Experimental: (§1) To explore the pharmacokinetic properties of YCHD following intragastric administration in rats, a rapid and sensitive method involving the use of UHPLC-MS/MS (Agilent 6460 series, Agilent Technologies, Santa Clara, CA, United States) was developed and validated for the simultaneous quantification of 10 active components of rat plasma. The quantification was conducted in ESI negative ionization mode, and the mass spectrometry conditions were as follows: capillary voltage, 3500 V; gas flow, 12 L/min; nebulizer, 40 psi; gas temperature, 350°C; and delta EMV (-), 400. A 5 μL extraction sample was injected into the column (Agilent SB-C18 column, 2.1 mm × 50 mm, 1.8 μm) and eluted at 0.4 mL/min with a gradient elution of water (with 0.4% v/v formic acid) (A) and acetonitrile (B) (0–3 min, 5–60% B; 3–5 min, 60–90% B; 5–5.1 min, 90–5% B; and re-equilibration for 3 min).
(§2) To each 50 μL plasma sample, 10 μL of internal standard solution (paeoniflorin, 1000 ng/mL) and 300 μL of a mixed solution of methanol and acetonitrile (v/v, 1:1; containing 1% formic acid) were added. Subsequently, the solution was vortex mixed for 5 min. After centrifugation at 15,000 rpm for 5 min, the supernatant was transferred completely into a tube, before being evaporated under N2 at 40°C. The residue was then dissolved in 50 μL of 50% methanol–water (v/v, 1:1) through vortexing for 5 min, after centrifugation at 15,000 rpm for 10 min. Finally, 5 μL of the supernatant sample was injected into the UHPLC-MS/MS system for analysis.
The rats were randomly divided into two groups (n = 5 for each group). […] After 24 h, the two groups of rats received a single oral dose of YCHD (12 g/kg). Blood was collected in heparinized tubes at 5, 15, 30, 45, 60, 120, 240, 360, 480, 720, and 1440 min after administration. The blood samples were centrifuged at 4000 rpm for 10 min, and the supernatant plasma was harvested. Plasma samples (50 μL) were immediately processed as outlined in Section “Chromatographic and Mass Spectrometry Conditions.”
(§3) Additional plasma samples (50 μL) were enzymatically hydrolyzed with 50 μL of enzyme solution (65.86 mg of sulfatase, dissolved in 2 mL of sodium acetate buffer, pH 5.0) for phase II metabolite quantification, in accordance with our previous study ([Ding et al., 2012]). After being vortex mixed for 5 min, the mixture was incubated at 37°C for 30 min and then returned to room temperature. Subsequently, the samples were processed as outlined in Section “Chromatographic and Mass Spectrometry Conditions” for UHPLC-MS/MS analysis. During routine analysis, each analytical run included six blank plasma samples, a set of calibration samples, a set of QC samples, and unknowns.
(§4) All data are presented as mean ± SD. A one-way analysis of variance was used to compare data between two groups using SPSS (Version 21.0). The differences were considered to be statistically significant when p < 0.05 and highly significant when p < 0.01 or p < 0.001. Pharmacokinetic data analysis was performed using DAS 2.1.1 software (Mathematical Pharmacology Professional Committee of China, Shanghai, China).
After sulfatase-aided enzymolysis, all the phase II metabolites could transform into their prototypes, including rhein, emodin, genipin, and capillarisin. The specific contents of the phase II metabolites of these components were detected indirectly by evaluating the content difference of their prototypes in samples after enzymolysis and before enzymolysis
(§5) CG = Ca −[MG × (CGG/MGG + CGe/MGe)]
Ca, CGG, and CGe represent the concentration of genipin, genipin-1-β-D-gentiobioside, and geniposide after enzymolysis of sulfatase, respectively. MG, MGG-, and MGe represent the mass of genipin, genipin-1-β-D-gentiobioside, and geniposide, respectively. The pharmacokinetic curves of phase II metabolites are illustrated in Figure 4B.

[2] = Pharmacokinetic study of YCHD components and phase II metabolites in ANIT-induced cholestatic rats (UHPLC-MS/MS, sulfatase enzymolysis); assay type: in vivo, rat; conditions: for AUC(0-∞) / Ka: Model group (ANIT 50 mg/kg cholestatic rats); for AUC(0-∞) / Ka / Cmax / Tmax / CL/F / MRT inf / Vd/F / half-life: plasma; for Cmax / Tmax / CL/F / MRT inf / Vd/F / half-life: rat, po, 12 g/kg; for CL/F: read-out: CLz/F; for MRT inf: read-out: MRT (0-∞) (converted); for Vd/F: read-out: Vz/F; for half-life: read-out: t1/2z
Experimental: as §1, with “400.” for “400. A 5 μL extraction sample was injected into the column (Agilent SB-C18 column, 2.1 mm × 50 mm, 1.8 μm) and eluted at 0.4 mL/min with a gradient elution of water (with 0.4% v/v formic acid) (A) and acetonitrile (B) (0–3 min, 5–60% B; 3–5 min, 60–90% B; 5–5.1 min, 90–5% B; and re-equilibration for 3 min).”
as §2
The rats were randomly divided into two groups (n = 5 for each group). […] The blood samples were centrifuged at 4000 rpm for 10 min, and the supernatant plasma was harvested. Plasma samples (50 μL) were immediately processed as outlined in Section “Chromatographic and Mass Spectrometry Conditions.”
as §3, §4
The specific contents of the phase II metabolites of these components were detected indirectly by evaluating the content difference of their prototypes in samples after enzymolysis and before enzymolysis
as §5
Ca, CGG, and CGe represent the concentration of genipin, genipin-1-β-D-gentiobioside, and geniposide after enzymolysis of sulfatase, respectively. MG, MGG-, and MGe represent the mass of genipin, genipin-1-β-D-gentiobioside, and geniposide, respectively.

[3] = Identification of components and metabolites of YCHD in rat plasma, bile, urine and feces (UHPLC/Q-TOF-MS); assay type: in vivo; conditions: rats, oral YCHD 12 g/kg, urine, feces
Experimental: After centrifuging at 4000 rpm for 10 min, supernatant plasma was harvested into heparinized tubes and then stored at -20°C for preservation. The rats in the second group (n = 6) were kept individually in metabolic cages to collect urine and feces. […] Subsequently, the rats were orally administered a single dose of YCHD (12 g/kg of body weight). […] For the third group of rats (n = 6), bile duct intubation was implemented, and blank bile samples were collected before administration. After the administration of YCHD at 12 g/kg of body weight, the drug-containing bile samples were collected.
Plasma, bile, and urine samples (200 μL each) were separately precipitated with six times of methanol–acetonitrile mixed solution (v/v, 1:1; containing 1% formic acid). After being vortex mixed for 5 min and centrifuged at 15,000 rpm for 5 min at 4°C, the supernatant was separated into another clean tube and dried under a gentle stream of nitrogen at 45°C. Subsequently, the residue was reconstituted in 100 μL of 50% methanol–water (v/v) and then vortex mixed for 10 min. After another round of centrifugation at 15,000 rpm for 5 min at 4°C, 5 μL of the supernatant was analyzed by UHPLC-MS/MS. A 0.5 g sample of naturally dried feces was supplemented with 2 mL of 80% methanol–water (v/v) and then ultrasonically extracted for 30 min at 4°C. After being centrifuged at 15,000 rpm for 10 min, the supernatant was dried under a gentle stream of nitrogen at 45°C. Finally, the residue was reconstituted in 1 mL of 50% methanol–water (v/v) and then vortex mixed for 10 min. After another round of centrifugation at 15,000 rpm for 5 min at 4°C, 5 μL of the supernatant sample was injected into the UHPLC-MS/MS system for analysis.
Separations were conducted on an Agilent SB-C18 column (2.1 mm × 50 mm, 1.8 μm) of a UHPLC/Q-TOF-MS system (Waters, Corp., Milford, MA, United States) maintained at 40°C.
A Synapt G2 quadrupole time-of-flight (Q/TOF) MS/MS system (Waters, Corp., Manchester, United Kingdom) equipped with an electrospray ionization (ESI) interface was operated in negative ionization mode and controlled by MassLynx software (Version 4.1). The optimized conditions for maximum detection of metabolites were as follows: the capillary voltage was set at 3.0 kV, extraction cone voltage was set at 10 and 15 V, source temperature was maintained at 120°C, and desolvation temperature was maintained at 450°C. […] An MS^E approach using a dynamic ramp of collision energy was also applied at two (low and high collision energies) scan functions. The following parameters were set: Function 1 (low energy)—mass scan range, 100–1000; scan time, 0.25 s; interscan delay, 0.05 s; collision energy, 4 V. Function 2 (high energy)—mass scan range, 100–1000; scan time, 0.2 s; interscan delay, 0.05 s; collision energy ramp, 10–30 V. Data were acquired using Masslynx^TM (Version 4.1. Waters, Crop., Milford, MA, United States), and Metabolynx^TM (Waters, Crop., Milford, MA, United States) was applied for post-acquisition data processing.

[4] = Control group (normal rats), single oral YCHD 12 g/kg, plasma
[5] = Sprague Dawley, rat, plasma, in normal and cholestatic rats after oral administration of YCHD
[6] = rat, Control group (normal rats), single oral YCHD 12 g/kg, plasma
[7] = Sprague Dawley, rat, Control group (normal rats), single oral YCHD 12 g/kg, plasma

Which results are given for O=C(/C=C/c1ccc(O)c(O)c1)O[C@@H]1C[C@](O)(C(=O)O)C[C@@H](O)[C@H]1O [Chlorogenic acid]?
AUC(0-∞) [1, 4]: 11559.2 ± 5248.0 µg·min/L; Ka [1, 4]: 19.0 ± 16.288 min⁻¹; Tmax [1, 5]: ≤ 27 min; Tmax ([1]; rat, plasma, Control group (normal rats), single oral YCHD 12 g/kg, plasma): 15 min; Cmax [1, 6]: 33 ± 4.5 ng/mL; CL/F [1, 6]: 1480 ± 921 mL/min/kg; Vd/F [1, 6]: 3800 ± 2060 L/kg; AUC(0-∞) ([2]; single oral YCHD 12 g/kg): 21437.2 ± 12572.8 µg·min/L; Ka ([2]; single oral YCHD 12 g/kg): 38.945 ± 18.022 min⁻¹; Cmax [2]: 78.9 ± 4.9 ng/mL; Tmax [2]: 27 min; CL/F [2]: 1360 ± 523 mL/min/kg; MRT inf [2]: 1990 min; Vd/F [2]: 2110 ± 1660 L/kg; half-life [2]: 1660 ± 2120 min

For CC(=O)c1ccc(OS(=O)(=O)O)cc1 [M6, 4-Hydroxyacetophenone-1-O-SO3], which “Source (biological samples in which the compound was identified)” value [3] is on record?
The value was “Plasma, bile, urine, feces”.

For COc1c(O)cc2oc(Oc3ccc(O)cc3)cc(=O)c2c1O [Capillarisin], which “direct detection of the prototype in rat plasma after YCHD administration” value (“direct detection of the prototype” below) [1] is on record?
The value was “could not be detected directly”.

And the “Source (biological samples in which the compound was identified)” value [3]?
The value was “Urine, feces”.

For Cc1cc(O)c2c(c1)C(=O)c1cc(OS(=O)(=O)O)cc(O)c1C2=O [M7, Emodin-O-SO3], which “Source (biological samples in which the compound was identified)” value [3] is on record?
The value was “Plasma, urine, feces”.

With COC(=O)C1=CO[C@@H](O)[C@@H]2C(CO)=CC[C@H]12 [Genipin] as the compound, how does the “direct detection of the prototype” value [1] read?
The value was “could not be detected directly”.

What about the “Source (biological samples in which the compound was identified)” value [3] of the same compound?
The value was “Bile, urine, feces”.

Which “AUC(0-∞)” value [1, 4] does the source give for O=C(O)/C=C/c1ccc(O)c(O)c1 [Caffeic acid] here?
Its value is 63847.8 ± 53249.0 µg·min/L.

And the Ka [1, 4]?
The Ka was 119.2 ± 82.6 min⁻¹.

And the Tmax ([1]; Sprague Dawley, rat, plasma, Control group (normal rats), single oral YCHD 12 g/kg, plasma)?
The Tmax was 15 min.

And the Tmax [1, 5]?
Its Tmax is at most 27 min.

What about the Cmax [1, 7] of the same compound?
The Cmax was 286 ± 14.5 ng/mL.

And the CL/F [1, 7]?
The CL/F was 445 ± 38 mL/min/kg.

What about the MRT inf ([1]; Sprague Dawley, rat, Control group (normal rats), single oral YCHD 12 g/kg, plasma, read-out: MRT (0-∞) (converted)) of the same compound?
Its MRT inf is 85.3 min.

And the Vd/F [1, 6]?
Its Vd/F is 35.7 ± 29.1 L/kg.

What about the half-life ([1]; rat, Control group (normal rats), single oral YCHD 12 g/kg, plasma, read-out: t1/2z) of the same compound?
Its half-life is 56.3 ± 43 min.

What about the “AUC(0-∞)” value ([2]; single oral YCHD 12 g/kg) of the same compound?
The value was 32651.4 ± 19640.7 µg·min/L.

What about the Ka ([2]; single oral YCHD 12 g/kg) of the same compound?
The Ka was 75.2 ± 24.5 min⁻¹.

What about the Cmax ([2]; Sprague Dawley) of the same compound?
Its Cmax is 78.9 ± 4.9 ng/mL.

And the Tmax ([2]; Sprague Dawley)?
Its Tmax is 24 min.

What about the CL/F ([2]; Sprague Dawley) of the same compound?
The CL/F was 1190 ± 95 mL/min/kg.

And the MRT inf ([2]; Sprague Dawley)?
The MRT inf was 103 min.

What about the Vd/F [2] of the same compound?
The Vd/F was 132 ± 39.7 L/kg.

And the half-life [2]?
Its half-life is 80.1 ± 27.5 min.

And the “AUC(0-∞) increased by, cholestatic model rats compared with normal rats” value ([2]; single oral YCHD 12 g/kg)?
Its value is 191.3%.

What about the “AUC(0-∞) reduced by, cholestatic model rats compared with normal rats” value ([2]; single oral YCHD 12 g/kg) of the same compound?
Its value is 48.9%.

And the “Cmax increased by, cholestatic model rats compared with normal rats” value ([2]; single oral YCHD 12 g/kg)?
The value was 138.8%.

And the “Cmax reduced by, cholestatic model rats compared with normal rats” value ([2]; single oral YCHD 12 g/kg)?
Its value is 72.4%.

With Cc1cc(O)c2c(c1)C(=O)c1cc(O)cc(O)c1C2=O [Emodin] as the compound, how does the “direct detection of the prototype” value [1] read?
Its value is “could not be detected directly”.

And the “Source (biological samples in which the compound was identified)” value [3]?
Its value is “Plasma, bile, urine, feces”.

With COC(=O)C1=COC(OS(=O)(=O)O)C2C(CO)=CCC12 (stereo not shown) [M3, Genipin-1-O-SO3] as the compound, how does the “Source (biological samples in which the compound was identified)” value [3] read?
Its value is “Bile, urine, feces”.

Which “Source (biological samples in which the compound was identified)” value [3] does the source give for COC(=O)C1=COC(OC2OC(C(=O)O)C(O)C(O)C2O)C2C(CO)=CCC12 (stereo not shown) [M2, Genipin-1-O-gluA] here?
The value was “Plasma, bile, urine, feces”.
